Experimental data from ChEMBL document CHEMBL1143886, “In vitro spermicidal activity of peptides from amphibian skin: dermaseptin S4 and derivatives” (Bioorg Med Chem, 2008).
Activity calls are given as the source filed them. No cut-off for these calls is given here.

Key:
HeLa = assay: Cytotoxicity against human HeLa cells at above 16 ug/ml after 24 hrs by MTT assay; assay type: cell-based
Sperm [1] = assay: Inhibition of human sperm motility assessed as decrease in curvilenear velocity by CASA; assay type: functional, cell-based
[2] = Inhibition of human sperm motility by Sander-Cramer modified assay; assay type: functional
Sperm [3] = assay: Inhibition of human sperm motility assessed as decrease in average path velocity by CASA; assay type: functional
Sperm [4] = assay: Inhibition of human sperm motility upto 15 mins by CASA; assay type: functional, cell-based
Sperm [5] = assay: Inhibition of human sperm motility assessed as decrease in straight line velocity by CASA; assay type: functional
[6] = Inhibition of human sperm motility at 20 ug/ml after 5 mins by CASA; assay type: functional; set-up: scale not given: the % may be the effect or the level left
Sperm [7] = assay: Inhibition of human sperm motility at 5 ug/ml after 15 mins by CASA; assay type: functional

Compound | Activity (HeLa) | Activity (Sperm [1]) | EC100 [2] [µg/mL] | Activity (Sperm [3]) | Activity (Sperm [5]) | further results
H-ALWKTLLKKVLKAAAKAALNAVLVGANA-OH [listing 1 of 2 here] | Toxic |  |  |  |  | 
H-LLKKVLKAAAKAALNAVLVGANA-OH |  | Dose-dependent effect | 25 | Dose-dependent effect | Dose-dependent effect | Activity (Sperm [4]): inactive
H-ALWMTLLKKVLKAAAKAALNAVLVGANA-NH2 [listing 1 of 2 here] |  |  | 25 |  |  | 
H-ALWKTLLKKVLKAAAK-NH2 | Toxic | Dose-dependent effect | 25 | Dose-dependent effect | Dose-dependent effect | 
H-ALWKTLLKKVLKAAAKAALNAVLVGANA-OH [listing 2 of 2 here] |  |  |  |  |  | Activity [6]: 100%
H-ALWMTLLKKVLKAAAKAALNAVLVGANA-NH2 [listing 2 of 2 here] | Toxic |  |  |  |  | 
CSCC[C@H](NC(=O)[C@H](Cc1c[nH]c2ccccc12)NC(=O)[C@H](CC(C)C)NC(=O)[C@H](C)N)C(=O)N[C@H](C(=O)N[C@@H](CC(C)C)C(=O)N[C@@H](CC(C)C)C(=O)N[C@@H](CCCCN)C(=O)N[C@@H](CCCCN)C(=O)N[C@H](C(=O)N[C@@H](CC(C)C)C(=O)N[C@@H](CCCCN)C(=O)N[C@@H](C)C(=O)N[C@@H](C)C(=O)N[C@@H](C)C(=O)N[C@@H](CCCCN)C(=O)N[C@@H](C)C(=O)N[C@@H](C)C(=O)N[C@@H](CC(C)C)C(=O)N[C@@H](CC(N)=O)C(=O)N[C@@H](C)C(=O)N[C@H](CN[C@@H](CC(C)C)C(=O)N[C@H](C(=O)NCC(=O)N[C@@H](C)C(=O)N[C@@H](CC(N)=O)C(=O)N[C@@H](C)C(N)=O)C(C)C)C(C)C)C(C)C)[C@@H](C)O |  | Dose-dependent effect |  | Dose-dependent effect | Dose-dependent effect | 
H-ALWMTLLKKVLKAAAKAALNAVLVGANA-OH |  |  | 25 |  |  | 
CC(C)C[C@H](NC[C@@H](NC(=O)[C@H](C)NC(=O)[C@H](CC(N)=O)NC(=O)[C@H](CC(C)C)NC(=O)[C@H](C)NC(=O)[C@H](C)NC(=O)[C@H](CCCCN)NC(=O)[C@H](C)NC(=O)[C@H](C)NC(=O)[C@H](C)NC(=O)[C@H](CCCCN)NC(=O)[C@H](CC(C)C)NC(=O)[C@@H](NC(=O)[C@H](CCCCN)NC(=O)[C@H](CCCCN)NC(=O)[C@H](CC(C)C)NC(=O)[C@H](CC(C)C)NC(=O)[C@@H](NC(=O)[C@H](CCCCN)NC(=O)[C@H](Cc1c[nH]c2ccccc12)NC(=O)[C@H](CC(C)C)NC(=O)[C@H](C)N)[C@@H](C)O)C(C)C)C(C)C)C(=O)N[C@H](C(=O)NCC(=O)N[C@@H](C)C(=O)N[C@@H](CC(N)=O)C(=O)N[C@@H](C)C(=O)O)C(C)C |  | Dose-dependent effect |  | Dose-dependent effect | Dose-dependent effect | Activity (Sperm [7]): Active
